# Source: US11345914B2, “Composition for delivering nucleic acid and nucleic acid-containing composition” (TOKYO UNIVERSITY OF PHARMACY AND LIFE SCIENCES, priority 2017, dated 2022)
# Test system: CIA (Collagen-Induced Arthritis) Mouse
# Assay: In vivo evaluation arthritis treatment effect of CIA mice
# Conditions: until 15th day, siRNA (RelA) 20 μg/day tail vein (composition as Example 24, N/P 20), MTX 90 μg intraperitoneal
# Method: Under ice-cooling, while adding an equal amount of type II collagen solution (2 mg/mL) dropwise to complete Freund's adjuvant (CFA), the mixture was homogenized to prepare an emulsion. Similarly, while adding an equal amount of type II collagen solution (2 mg/mL) dropwise to incomplete Freund's adjuvant (IFA), the mixture was homogenized to prepare an emulsion. The prepared emulsion was confirmed to have formed a w/o type emulsion by maintaining a sphere even when it was dropped on the water surface, and was used in the experiment.
# Using 8-weeks old male DBA/1J mice, CIA mice were prepared. In the following, the schedule for preparing CIA mice is shown. 100 μL of the emulsion obtained from type II collagen and CFA prepared at −21′ day was intradermally administered to the tail root portion to carry out induction of the first immunization. 100 μL of the emulsion obtained from type II collagen and […] prepared at 0th day was similarly intradermally administered to carry out additional induction of the immunization. At this time, the intradermal administration was carried out reliably was confirmed by the fact that the administered site was protruded with white. […]
# Thickening of the hindlimb ankle joint portion was measured by using a micrometer. […]
# Clinical score was calculated as follows. […]
structure (smiles),measurement,setting,value
"CN(Cc1cnc2nc(N)nc(N)c2n1)c1ccc(C(=O)N[C@@H](CCC(=O)O)C(=O)O)cc1 [MTX, methotrexate]",thickening increasing rate of the hindlimbs,FIG. 4,thickening of the hindlimbs was admitted
same,clinical score,FIG. 5,remarkable increase in the clinical score was admitted
